Assay results: patent US20110269817A1, “COMPOSITIONS AND METHODS RELATED TO SIRT1 FUNCTION” (The Regents of the University of California, priority 2008, published 2011)
“Also recorded” adds a separate entry of the source. Read-outs that look alike come from different tables or passages of the source.

Experiments:
[1] = system: dbp expression levels in WT MEFs; test: dbp circadian expression in serum-shocked WT MEFs treated with SIRT1 inhibitors, quantitative PCR; format: cell-based, mouse
Description: (A) Dbp expression levels in MEFs either treated with SIRT1 inhibitors (10 mMNAM or […]) or not were analyzed by quantitative PCR. The value at time 20 in MEFs without treatment was set to 1.
(§1) MEFs were generated from WT or homozygous Sirt1−/− sibling mice and cultured in DMEM (4.5 g/l glucose) supplemented with 7.5% newborn bovine serum, 2.5% FBS, and antibiotics. JEG3 cells were grown in Basal Medium Eagle supplemented with 10% FBS and antibiotics.
Each quantitative real-time RT-PCR was performed using the Chromo4 real time detection system (BIO-RAD). The PCR primers for mDbp mRNA, mPer2 mRNA, mCry 1 mRNA, 18S rRNA, Dbp UP, Dbp E-box, Dbp 30R, and mSIRT1 mRNA were described (Ripperger and Schibler, 2006; Rodgers et al., 2005; Yamamoto et al., 2004). PCR primers for Dbp TSS were designed using Real-Time PCR Primer Design (https://www.genscript.com/ssl-bin/app/primer), and the sequences are available upon request. For a […] PCR, 50 ng of cDNA template was mixed with the primers to final concentrations of 200 nM and […] of iQ SYBR Green Supermix (BIO-RAD), respectively. The reaction was first incubated at 95° C. for 3 min, followed by 40 cycles at 95° C. for 30 s and 60° C. for 1 min.

Sirt1−/− MEFs = test: circadian gene expression in serum-shocked Sirt1−/− MEFs treated with SIRT1 inhibitors; format: cell-based, mouse
Description: as §1

[2] = system: histone H3 Lys9/Lys14 acetylation at the Dbp transcription start site; test: ChIP assay of histone H3 (Lys9/Lys14) acetylation at dbp TSS in serum-shocked MEFs; format: cell-based, mouse; settings: WT MEFs after serum shock, 10 mM NAM or
Description: (B-D) Crosslinked cell extracts were isolated from MEF without treatment (B) or with SIRT1 inhibitors, 10 mMNAM (C), or […] (D) at indicated time points after serum shock, subjected to ChIP assay, and analyzed by quantitative PCR with dbp TSS primers (See FIG. 4C). Results of semiquantitative PCR are also shown at the bottom of each experiment. The value at time 16 in MEFs without treatment was set to 1. All data presented are the means±SEM of three independent samples.
Conventional ChIP assay was used for histones from MEFs (Yamamoto et al., 2004). For nonhistone proteins, dual crosslinking ChIP assay (Nowak et al., 2005) was used with slight modifications. After serum shock, cells were washed three times with room temperature PBS, then PBS/1 mM MgCl2 was added. Disuccinimidyl Glutalate (DSG) was added to a final concentration of 2 mM for crosslinking. After 45 min at room temperature, formaldehyde was added to a final concentration of 1% (v/v) and cells incubated for 15 min. […]
We analyzed the acetylation at Lys9 and Lys14 of histone H3 because we had previously found these to be preferential sites of CLOCK's HAT activity (Doi et al., 2006), and also because SIRT1 deacetylase function was described to be targeted to these lysines (Imai et al., 2000). […]

BMAL1 Lys537 acetylation = BMAL1 Lys537 acetylation in JEG3 cells expressing Myc-CLOCK and Flag-Myc-BMAL1, HDAC inhibitor treatment; format: cell-based, human; settings: NAM (10 mM) 16 hr
Description: (A) Class III HDAC inhibitor enhances BMAL1 Lys537 acetylation. JEG3 cells transfected with Myc-CLOCK and Flag-Myc-BMAL1 were treated with HDAC I and II inhibitor, TSA […], for 6 hr and HDAC III inhibitor, NAM (10 mM), for 16 hr before harvest. Immunoprecipitated BMAL1 proteins by FLAG antibody were subjected to SDS-PAGE and probed with acetylated BMAL1 or Myc antibodies.
(§2) Recently we have reported that BMAL1 is rhythmically acetylated by CLOCK and that this event is essential for control of circadian function (Hirayama et al., 2007). We have generated an antibody that specifically recognizes acetylated BMAL1 at Lys537 (FIG. 10). Because of the interplay between CLOCK and SIRT1, we suspected that the deacetylase that could regulate the dynamic levels of BMAL1 acetylation could be SIRT1. To identify which class of HDAC is responsible for deacetylation of BMAL1, we treated cultured cells expressing Myc-CLOCK and Flag-Myc-BMAL1 with class I and II inhibitor, trichostatin A (TSA), and/or class III inhibitor, NAM, for 6 hr and 16 hr, respectively. […] We then coexpressed BMAL1 with CLOCK and confirmed that the anti-AcBMAL1 antibody readily recognizes CLOCK-induced acetylation at Lys537 (FIG. 6B). […] We also confirmed that SIRT1 readily deacetylates BMAL1 in an in vitro deacetylation assay (FIG. 11).

SIRT1 = molecular target: T1, SIRT1 (Homo sapiens, UniProt Q96EB6); test: BMAL1 deacetylation by SIRT1 in JEG3 cells transfected with Myc-CLOCK, Flag-Myc-BMAL1 and SIRT1-HA; format: cell-based; settings: 1 mM NAD+ or 10 mM NAM for 16 hr
T1 construct: expressed in transfected cells; host or cells: JEG3
T1 sequence (Q96EB6 1-747): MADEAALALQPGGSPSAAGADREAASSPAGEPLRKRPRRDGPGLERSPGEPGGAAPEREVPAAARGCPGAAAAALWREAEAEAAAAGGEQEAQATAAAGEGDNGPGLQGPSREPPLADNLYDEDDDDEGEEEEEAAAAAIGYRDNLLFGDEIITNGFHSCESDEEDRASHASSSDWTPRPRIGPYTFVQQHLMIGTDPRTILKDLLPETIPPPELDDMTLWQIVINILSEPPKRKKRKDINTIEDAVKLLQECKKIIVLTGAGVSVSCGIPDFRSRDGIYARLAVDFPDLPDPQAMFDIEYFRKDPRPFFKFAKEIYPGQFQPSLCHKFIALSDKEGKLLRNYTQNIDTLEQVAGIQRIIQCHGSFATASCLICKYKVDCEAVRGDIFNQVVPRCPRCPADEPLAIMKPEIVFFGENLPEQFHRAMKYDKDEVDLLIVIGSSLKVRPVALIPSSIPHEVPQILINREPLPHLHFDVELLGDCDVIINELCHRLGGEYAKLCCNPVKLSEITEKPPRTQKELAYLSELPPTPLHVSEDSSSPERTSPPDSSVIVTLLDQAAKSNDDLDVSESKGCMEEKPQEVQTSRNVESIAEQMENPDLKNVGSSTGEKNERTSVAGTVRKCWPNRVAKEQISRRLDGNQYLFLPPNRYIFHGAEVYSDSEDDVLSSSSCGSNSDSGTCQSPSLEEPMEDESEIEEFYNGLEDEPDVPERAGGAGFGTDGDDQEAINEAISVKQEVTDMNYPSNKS
Description: (D) Deacetylation of BMAL1 by SIRT1 is NAD^+ dependent manner. JEG3 cells transfected with Myc-CLOCK and Flag-Myc-BMAL1 and SIRT1-HA were treated with 1 mM NAD^+ or 10 mM NAM for 16 hr before harvest. Immunoprecipitated BMAL1 proteins by FLAG antibody were probed with acetylated BMAL1 antibody. SIRT1 protein amount was detected by SIRT1 antibody.
as §2

CLOCK-SIRT1 interaction = CLOCK-SIRT1 interaction (coimmunoprecipitation) in transfected JEG3 cells; format: cell-based, human; settings: treated 1, 2 and 6 h, 1 mM NAD+, 10 mM glucose, 1 mM pyruvate, 100 μM DFO, 100 μM resveratrol, 120 μM splitomicin
Description: The effect of various agents on the CLOCK-SIRT1 interaction was analyzed. […] JEG3 cells were cultured in BME containing 10% FBS and transfected with Myc-CLOCK, Myc-BMAL1, and Flag-SIRT1 constructs. Negative control (NC) represents cells transfected only with Myc-CLOCK and Myc-BMAL1. 24 h after transfection cells were replated, allowed to readhere for another 16 hours, and treated with indicated reagents for 1, 2 and 6 hours. Here the results with 6 h treatment are shown, the same results were obtained at 1 h and 2 h. Nuclear extracts were processed as previously described (Hirayama et al. 2007). This experiment was performed 3 times and a representative result is shown.
Legend: Lane 1: control (C); lane 2: 50% horse serum (HS); lane 3: 1 mM NAD^+ (NAD^+); lane 4: 10 mM glucose (Glc); lane 5: 1 mM pyruvate (Pyr); 6: 100 μM DFO (DF); lane 7: 100 μM resveratrol; (Res) lane 8:120 μM splitomicin (Split). Lane 9: negative control (NC).

Structure (SMILES)	circadian acetylation of histone H3 Lys9/Lys14 at Dbp TSS [2]	BMAL1 deacetylation by SIRT1 (SIRT1)	modulation of the CLOCK-SIRT1 interaction (CLOCK-SIRT1 interaction)	other results
NC(=O)c1cccnc1 [NAM, nicotinamide]	loss in the circadian oscillation of acetylation, generating a noncyclic, high level of Lys9/Lys14 acetylation	significantly attenuated	–	dbp expression pattern (circadian oscillation) ([1]; WT MEFs after serum shock, 10 mM NAM or splitomicin): significantly broader phase and higher amplitude in the oscillation; also recorded: loss in stringency of circadian gene expression; effect of SIRT1 inhibitors on circadian gene expression in Sirt1−/− MEFs (Sirt1−/− MEFs): no effect; acetylation of BMAL1 at Lys537 (BMAL1 Lys537 acetylation): significantly increased
O=C1CCc2c(ccc3ccccc23)O1 [splitomicin]	loss in the circadian oscillation of acetylation, generating a noncyclic, high level of Lys9/Lys14 acetylation	–	not significantly modulated	dbp expression pattern (circadian oscillation) [1]: significantly broader phase and higher amplitude in the oscillation; also recorded: loss in stringency of circadian gene expression; effect of SIRT1 inhibitors on circadian gene expression in Sirt1−/− MEFs (Sirt1−/− MEFs; Sirt1−/− MEFs, data not shown): no effect
CC(=O)N(O)CCCCCNC(=O)CCC(=O)N(O)CCCCCNC(=O)CCC(=O)N(O)CCCCCN [desferroxamine]	–	–	not significantly modulated	–
NC(=O)c1ccc[n+]([C@@H]2O[C@H](COP(=O)([O-])OP(=O)(O)OC[C@H]3O[C@@H](n4cnc5c(N)ncnc54)[C@H](O)[C@@H]3O)[C@@H](O)[C@H]2O)c1 [NAD^+, nicotinamide adenine dinucleotide]	–	responsive	not significantly modulated	–
Oc1ccc(C=Cc2cc(O)cc(O)c2)cc1 [resveratrol]	–	–	not significantly modulated	–
